Measurements as given in ChEMBL document CHEMBL1201862, “PubChem BioAssay data set” (2004).
Calls of active or inactive are those of the source.

How the values were obtained:
[1] = general cell-killing toxicity readout – plate reader, dry powder samples, cytotoxicity control for PAX8 inhibitor project, dose response (AID 743021); assay type: functional, cell-based
HEK293 [2] = test: NOD2 signaling inhibitors in MDP-stimulated cells, cell-based, uHTS, luminescence (AID 2001); assay type: functional; conditions: Homo sapiens
HEK293 [3] = test: cells; assay type: functional, cell-based; conditions: Homo sapiens
Hexokinase HKDC1 = molecular target: T1, Hexokinase HKDC1 (Homo sapiens, UniProt Q2TB90); test: inhibition of HKDC1 glucose phosphorylation – biochemical, W721R variant, dose response (AID 504729); assay type: functional
T1 sequence (Q2TB90 whole entry): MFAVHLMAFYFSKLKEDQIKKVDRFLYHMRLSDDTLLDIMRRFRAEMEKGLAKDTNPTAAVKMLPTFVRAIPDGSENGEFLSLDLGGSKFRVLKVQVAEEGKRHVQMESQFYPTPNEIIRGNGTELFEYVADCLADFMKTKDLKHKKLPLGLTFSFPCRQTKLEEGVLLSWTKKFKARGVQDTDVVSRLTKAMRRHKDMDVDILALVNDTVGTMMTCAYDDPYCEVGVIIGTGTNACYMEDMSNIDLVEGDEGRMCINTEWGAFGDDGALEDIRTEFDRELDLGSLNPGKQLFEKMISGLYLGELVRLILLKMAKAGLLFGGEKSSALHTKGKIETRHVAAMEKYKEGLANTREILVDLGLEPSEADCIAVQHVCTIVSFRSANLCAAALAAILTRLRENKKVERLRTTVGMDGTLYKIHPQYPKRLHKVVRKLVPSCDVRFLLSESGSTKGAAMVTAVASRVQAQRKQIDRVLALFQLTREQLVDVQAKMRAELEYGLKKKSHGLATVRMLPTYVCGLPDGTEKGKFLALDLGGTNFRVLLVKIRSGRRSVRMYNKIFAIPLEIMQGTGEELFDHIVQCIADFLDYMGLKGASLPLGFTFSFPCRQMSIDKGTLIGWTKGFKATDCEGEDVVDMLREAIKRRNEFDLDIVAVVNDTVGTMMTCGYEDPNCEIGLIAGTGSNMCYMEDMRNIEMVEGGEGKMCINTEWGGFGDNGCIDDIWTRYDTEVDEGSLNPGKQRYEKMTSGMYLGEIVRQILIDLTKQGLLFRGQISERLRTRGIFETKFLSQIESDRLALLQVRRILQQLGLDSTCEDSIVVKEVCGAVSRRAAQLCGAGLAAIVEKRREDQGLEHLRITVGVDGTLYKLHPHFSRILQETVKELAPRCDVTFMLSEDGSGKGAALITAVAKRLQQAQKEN

HEK293 [4] = test: cells; assay type: functional, cell-based; conditions: Homo sapiens; remark: listed apart in the source
Paired box protein Pax-8 = Paired box protein Pax-8 (Homo sapiens, UniProt Q06710); test: PAX8 transcriptional activity inhibition in RMG-I – RMG-I cells, luciferase, cherry-pick, dose response (AID 687027); assay type: functional, cell-based;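 further: luciferase reporter driven by Pax8 target thyroperoxidase promoter measured by SteadyGlo luminescence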
Chain of Paired box protein Pax-8 (Q06710 whole entry): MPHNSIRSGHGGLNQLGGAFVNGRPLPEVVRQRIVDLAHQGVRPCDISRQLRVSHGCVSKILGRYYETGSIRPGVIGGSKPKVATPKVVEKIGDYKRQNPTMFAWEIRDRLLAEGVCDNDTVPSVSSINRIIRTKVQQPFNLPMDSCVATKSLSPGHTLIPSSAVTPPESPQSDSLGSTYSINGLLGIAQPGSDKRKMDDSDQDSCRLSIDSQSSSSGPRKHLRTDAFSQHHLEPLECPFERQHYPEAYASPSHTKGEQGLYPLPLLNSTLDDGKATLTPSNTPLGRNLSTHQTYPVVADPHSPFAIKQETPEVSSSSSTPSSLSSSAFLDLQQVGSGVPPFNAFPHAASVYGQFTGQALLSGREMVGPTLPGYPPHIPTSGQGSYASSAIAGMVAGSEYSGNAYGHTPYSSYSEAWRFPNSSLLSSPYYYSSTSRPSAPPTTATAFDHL

CAAX prenyl protease 2 = molecular target: T2, CAAX prenyl protease 2 (Saccharomyces cerevisiae S288c, UniProt Q03530); assay type: biochemical
T2 sequence (Q03530 whole entry): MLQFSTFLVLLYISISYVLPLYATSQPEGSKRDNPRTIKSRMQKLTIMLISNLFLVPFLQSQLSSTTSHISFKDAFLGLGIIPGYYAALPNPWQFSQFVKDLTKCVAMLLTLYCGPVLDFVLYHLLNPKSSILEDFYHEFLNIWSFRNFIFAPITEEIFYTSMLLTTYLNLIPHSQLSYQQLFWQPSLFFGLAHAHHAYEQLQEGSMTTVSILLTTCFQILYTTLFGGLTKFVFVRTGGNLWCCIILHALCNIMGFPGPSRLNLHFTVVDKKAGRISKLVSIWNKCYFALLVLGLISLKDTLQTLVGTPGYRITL

CAAX prenyl protease 1 = CAAX prenyl protease 1 (Saccharomyces cerevisiae S288c, UniProt P47154); test: yeast CAAX protease Ste24 inhibition – biochemical, S. cerevisiae, plate reader, cherry-pick, dose response (AID 488815)
Chain of CAAX prenyl protease 1 (P47154 whole entry): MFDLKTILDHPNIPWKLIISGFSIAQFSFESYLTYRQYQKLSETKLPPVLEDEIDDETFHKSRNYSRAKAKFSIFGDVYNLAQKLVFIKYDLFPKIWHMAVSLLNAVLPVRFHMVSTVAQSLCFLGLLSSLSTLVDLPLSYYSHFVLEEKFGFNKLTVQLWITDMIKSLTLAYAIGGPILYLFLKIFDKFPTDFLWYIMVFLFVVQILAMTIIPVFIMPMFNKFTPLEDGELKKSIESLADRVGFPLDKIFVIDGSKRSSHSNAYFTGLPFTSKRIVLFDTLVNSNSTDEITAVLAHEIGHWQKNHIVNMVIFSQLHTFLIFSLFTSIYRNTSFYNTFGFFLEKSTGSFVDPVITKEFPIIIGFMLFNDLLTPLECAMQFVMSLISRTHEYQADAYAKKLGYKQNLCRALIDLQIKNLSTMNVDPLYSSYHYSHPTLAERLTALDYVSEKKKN

[5] = molecular target: Heat shock protein HSP 90-alpha (Homo sapiens, UniProt P07900); assay type: functional, organism-based

SMILES	AC50 [1]	IC50 (HEK293 [2])	IC50 (HEK293 [3])	IC50 (Hexokinase HKDC1)	IC50 (HEK293 [4])	AC50 (Paired box protein Pax-8)	AC50 (CAAX prenyl protease 2)	AC50 (CAAX prenyl protease 1)	AC50 [5]
O=C(NCCc1ccccc1)C(c1cccs1)N(C(=O)CCl)c1ccc(Cl)cc1 (centres undefined)	6.13 µM (active)	5.36 µM (active)	> 20 µM (inactive)	35.7 µM (inactive)	4.24 µM (active)	2.84 µM (active)	–	–	–
CCCCCCCCCC[N+](C)(C)CC/C=C1/c2ccccc2Sc2ccc(Cl)cc21	–	–	–	–	–	–	4.96 µM (active)	6.47 µM (active)	8.12 µM (active)
